Measured values published in patent US9303069B2, “Peptides for treating cancer” (University of Mississippi Medical Center, priority 2014, dated 2016).
Ends that are not written are not given here.

Assays:
Assay type in all cases: cell-based, human
[1] = tested on: SKOV3 cells; details: 48 h
Procedure: Thus, a peptide (hereafter IRIS peptide) composed of a cell/nucleus penetrating signal (FIG. 26) fused to BRCA1-IRIS intron 11 (FIG. 26) was synthesized. Equal numbers of HOSE, HOSE/IRIS, SKOV3, OVCAR3, OVCAR420 and OV-90 cells were grown in the presence of increasing concentrations of IRIS peptide for 48 hours.
To investigate the contribution of ErbB2 and TrkB to BRCA1-IRIS-induced cisplatin resistance, equal numbers of SKOV3 cells were either depleted from BRCA1-IRIS, ErbB2 or TrkB using specific siRNAs for 48 hours before they were (i) exposed to increasing concentrations of cisplatin for another 24 hours or (ii) exposed to IRIS peptide, ErbB2 inhibitor (CP-724714), TrkB inhibitor (K252a) or both for 24 hours, before they were exposed to increasing concentrations of cisplatin for another 24 hours.
Cell viability measurement. Cell viability under different experimental conditions was determined using the MTS assay […]. Briefly, SKOV3, OVACAR3, HOSE and HOSE/IRIS cells (2.5×10^4 cells per well) were seeded in 96 well plates and incubated overnight at 37° C. in 10% humidified CO2 atmosphere in varying concentrations of IRIS peptide, or inhibitors of ErbB2 (CP-724714), EGFR (Erlotinib), TrkB (K252a), JNK (SP600125), p38 (SB203580), ERK (PD98059) and PI3′K/AKT (LY294002) inhibitors for 24 hours at 37° C. Cell Titer 96® Aqueous (Promega, Madison, Wis., USA) was used to measure viability following manufactures instructions. Cell viability (%) was expressed as a ratio to control cells×100. Growth inhibition was also determined by manually counting cells in five different microscopic fields. Change in cell numbers (fold) was expressed as a ratio to control cells×100. All experiments were done in at least triplicates, three different times. * is p≦0.05, ** is p≦0.001 and *** is p≦0.0001.
Transfections of siRNA. siRNAs for human ErbB2 and TrkB were purchased from Ambion and Santa Cruz Biotechnology, USA. Custom synthesized siRNA against BRCA1 IRIS was used. siRNA against luciferase gene was used as the negative control. Sub-confluent cells were transfected in 6- or 96-well plates with ErbB2 (100 nM), TrkB (100 nM), BRCA1 IRIS (200 nM) or control siRNA using Oligofectamine™ reagent (GibcoBRL Inc, USA) following the instructions of the manufacturer. Protein expression was tested by Western blot after 72 hours of siRNA transfection. Cell viability was evaluated by MTS or by manual counting after 72 hours of siRNA exposure alone or in combination with cisplatin exposure (for an additional 24 hours).

[2] = tested on: HOSE, HOSE/IRIS, SKOV3, OVCAR3, OVCAR420 and OV-90 cells; assay: Survival of ovarian cell lines after siRNA transfection followed by IRIS peptide; details: then increasing concentrations of IRIS peptide 24 hours
Procedure: To establish the specificity of this peptide further, it was assumed that it would not affect cells already depleted from BRCA1-IRIS. To do that HOSE, HOSE/IRIS, SKOV3, OVCAR3, OVAC420 and OV-90 cells were first transfected with luciferase (as control, hereafter siLuc) or BRCA1-IRIS (hereafter siIRIS) specific siRNAs for 48 hours before they were exposed to increasing concentrations of IRIS peptide for another 24 hours.
Cell viability measurement. Cell viability under different experimental conditions was determined using the MTS assay or cell. […] Cell viability (%) was expressed as a ratio to control cells×100. Growth inhibition was also determined by manually counting cells in five different microscopic fields. Change in cell numbers (fold) was expressed as a ratio to control cells×100. […]
Transfections of siRNA. siRNAs for human ErbB2 and TrkB were purchased from Ambion and Santa Cruz Biotechnology, USA. […] Cell viability was evaluated by MTS or by manual counting after 72 hours of siRNA exposure alone or in combination with cisplatin exposure (for an additional 24 hours).

[3] = tested on: AKT, p-AKT, p-FOXO and FOXO3a; assay: Signalling proteins in MDA-MB-231 and MDA-MB-468 cells (Western)
Description: This was completely in line with decreased MDM2 and Skp2 (the ubiquitin ligases responsible for p-FOXO degradation) expression in BRCA1-IRIS silenced and BRCA1-IRIS and AKT inactivated cells (FIG. 87).

RRIRPRPPRLPRPRPRPLPFPRPGIGTRFLCLPQSIYRSELNVYAFGEHILQISKYS [IRIS peptide]
IC50 [1]: ~10 µM
effect of IRIS peptide on survival of BRCA1-IRIS silenced cells ([2]; siIRIS 48 hours): not affected by the peptide at any of the concentrations tested
effect of IRIS peptide on survival of siLuc-transfected cells ([2]; siLuc 48 hours): gradual decrease in the survival of all cell lines
total and activated AKT (p-AKT) levels ([3]; 5 μM IRIS peptide or 10 μM LY294002, 24 hours): decreased the levels of total and activated AKT (p-AKT) in both cell lines
p-FOXO and FOXO3a levels ([3]; 5 μM IRIS peptide, 10 μM LY294002 or 10 μM PD98059, 24 hours): decreased p-FOXO level and increased the levels of FOXO3a in both cell lines
